According to patent US20060105330A1, “Diagnostics and remedies for malignant brain tumor” (Institute of gene and brain science, priority 2002, published 2006):

System: RFX1 gene expression in human glioma U251 cells
Assay: RFX1 gene re-expression by 5-azacytidine and trichostatin A treatment, RT-PCR
Assay type: cell-based
Settings: single inhibitor, compared with the control, 5-azacytidine 500 nM for 3 days, trichostatin A 500 ng/ml for 24 hours
Method: Total RNAs derived from human glioma tissues (GB4, GB13, GB16, and GB17) and human glioma cell lines were extracted with Trizol (manufactured by GIBCO), and total RNAs of normal tissues were purchased from Clontech. cDNAs were synthesized from 10 μg of each of total RNAs using the reverse transcriptase XL (AMV) (manufactured by Takara Shuzo Co., Ltd.) in a final volume of 10 μl. PCR was performed in the system in a total volume of 25 μl, using 1 μl cDNA template and Takara Taq™ (manufactured by Takara Shuzo Co., Ltd.). […]
The resulting PCR products were electrophoresed on 2% agarose gel and analyzed by ethidium bromide staining.
Human glioma cell lines were plated at a low density, incubated for 24 hours, and then 5-azacytidine (methyltransferase inhibitor) (manufactured by Sigma Chemical Co.) was added at a final concentration of 500 nM. […] PCR was then performed and changes in gene expression were analyzed using each agent.
To investigate the relationship between reduction or loss of expression of the RFX1 and BGT-1 genes in glioma and DNA methylation or histone deacetylation, change in expression of each gene was analyzed using the RT-PCR method, either after treatment of human glioma cell lines with the methyltransferase inhibitor 5-azacytidine and the histone deacetylase inhibitor trichostatin A singly or after treatment of cells with both inhibitors.

SMILES | change in expression of the RFX1 gene (RT-PCR)
Nc1ncn([C@@H]2O[C@H](CO)[C@@H](O)[C@H]2O)c(=O)n1 [5-azacytidine] | enhancement of expression
CC(/C=C/C(=O)NO)=C\[C@@H](C)C(=O)c1ccc(N(C)C)cc1 [trichostatin A] | enhancement of expression
